Data: patent publication US9617244B2, “Antibacterial quinoline derivatives” (JANSSEN PHARMACEUTICA NV, priority 2012, dated 2017)
≈ marks a conversion by molar mass, not a printed value.

Tested on: Staphylococcus aureus (ATCC29213)
Experiment: In-vitro anti-bacterial activity, microtitre plate assay, IC90 determination (non-mycobacterial strains)
Format: cell-based
Conditions: 90% inhibitory concentration for bacterial growth, 24 hours, resazurin fluorescence
Description: D.2. In-Vitro Method for Testing Compounds for Anti-Bacterial Activity Against Various Non-Mycobacterial Strains
Preparation of Bacterial Suspensions for Susceptibility Testing:
The bacteria used in this study were grown overnight in flasks containing 100 ml Mueller-Hinton Broth (Becton Dickinson—cat. no. 275730) in sterile de-ionized water, with shaking, at 37° C. Stocks (0.5 ml/tube) were stored at −70° C. until use. Bacteria titrations were performed in microtiter plates to detect the TCID50, in which TCID50 represents the dilution that gives rise to bacterial growth in 50% of inoculated cultures. In general, an inoculum level of approximately 100 TCID50 was used for susceptibility testing.
Anti Bacterial Susceptibility Testing: IC90 Determination
Flat-bottom, sterile 96-well plastic microtiter plates were filled with 180 μl of sterile deionized water, supplemented with 0.25% BSA. Subsequently, stock solutions (7.8× final test concentration) of compounds were added in 45 μl volumes in column 2 Serial five-fold dilutions (45 μl in 180 μl) were made directly in the microtiter plates from column 2 to reach column 11. Untreated control samples with (column 1) and without (column 12) inoculum were included in each microtiter plate. Depending on the bacteria type, approximately 10 to 60 CFU per well of bacteria inoculum (100 TCID50), in a volume of 100 μl in 2.8× Mueller-Hinton broth medium, was added to the rows A to H, except column 12. The same volume of broth medium without inoculum was added to column 12 in row A to H. The cultures were incubated at 37° C. for 24 hours under a normal atmosphere (incubator with open air valve and continuous ventilation). At the end of incubation, one day after inoculation, the bacterial growth was quantitated fluorometrically. Therefore resazurin (0.6 mg/ml) was added in a volume of 20 μl to all wells 3 hours after inoculation, and the plates were re-incubated overnight. A change in colour from blue to pink indicated the growth of bacteria. The fluorescence was read in a computer-controlled fluorometer (Cytofluor Biosearch) at an excitation wavelength of 530 nm and an emission wavelength of 590 nm. The % growth inhibition achieved by the compounds was calculated according to standard methods. The IC90 (expressed in μg/ml) was defined as the 90% inhibitory concentration for bacterial growth.

| SMILES | IC90 STA B29213 [µg/mL] |
| --- | --- |
| COc1nc2ccc(SC)cc2cc1C(c1cccc(Cl)c1)C1(O)CCNC(c2ccc(F)cc2C)C1 (centres unmarked) [Compound 163] | 1.70 (≈ 3.17 µM) |
| COc1nc2ccc(SC)cc2cc1C(c1cccc(Cl)c1)C1(O)CCNC(c2ccc(F)cc2C)C1 (centres unmarked) [Compound 164] | 4.23 (≈ 7.88 µM) |
| COc1nc2ccc(SC)cc2cc1C(c1cccc(Cl)c1)C1(O)CCNC(c2ccc(F)cc2C)C1 (centres unmarked) [Compound 165] | 5.10 (≈ 9.5 µM) |
| COc1nc2ccc(SC)cc2cc1C(c1cccc(Cl)c1)C1(O)CCNC(c2ccc(F)cc2C)C1 (centres unmarked) [Compound 166] | 3.09 (≈ 5.75 µM) |
| COc1nc2ccc(SC)cc2cc1C(c1ccccc1)C1(O)CCNC(c2ccc(F)cc2C)C1 (centres unmarked) [Compound 167] | 3.17 (≈ 6.31 µM) |
| COc1nc2ccc(SC)cc2cc1C(c1ccccc1)C1(O)CCNC(c2ccc(F)cc2C)C1 (centres unmarked) [Compound 169] | 4.96 (≈ 9.87 µM) |
| COc1nc2ccc(SC)cc2cc1C(c1ccccc1)C1(O)CCNC(c2ccc(F)cc2C)C1 (centres unmarked) [Compound 170] | 5.27 (≈ 10.5 µM) |
| COc1nc2ccc(Br)cc2cc1C(c1cccc(Cl)c1)C1(O)CCNC(c2ccc(F)cc2C)C1 (centres unmarked) [Compound 173] | 2.86 (≈ 5.02 µM) |
| CSc1ccc2[nH]c(=O)c(C(c3cccc(Cl)c3)C3(O)CCNC(c4ccc(F)cc4C)C3)cc2c1 (centres unmarked) [Compound 177] | 1.76 (≈ 3.36 µM) |
| CSc1ccc2[nH]c(=O)c(C(c3ccccc3)C3(O)CCNC(c4ccc(F)cc4C)C3)cc2c1 (centres unmarked) [Compound 179] | 8.69 (≈ 17.8 µM) |
| CSc1ccc2nc(O)c(C(c3ccccc3)C3(O)CCNC(c4ccc(F)cc4C)C3)cc2c1 (centres unmarked) [Compound 183] | 3.31 (≈ 6.77 µM) |
| COc1nc2ccc(SC)cc2cc1C(c1ccc(Cl)cc1)C1(O)CCNC(Cc2ccc(F)c(F)c2)C1 (centres unmarked) [Compound 188] | 2.20 (≈ 3.96 µM) |
| COc1nc2ccc(SC)cc2cc1C(c1ccc(Cl)cc1)C1(O)CCNC(Cc2ccc(F)c(F)c2)C1 (centres unmarked) [Compound 190] | 1.39 (≈ 2.5 µM) |
| Cc1cc(F)ccc1C1CC(O)(C(c2ccccc2)c2cc3cc(Br)ccc3[nH]c2=O)CCN1 (centres unmarked) [Compound 192] | 7.00 (≈ 13.4 µM) |
| COc1nc2ccc(SC)cc2cc1C(c1ccccc1)C1(O)CCNC(c2ccc(F)cc2C)C1 (centres unmarked) [Compound 196] | 3.17 (≈ 6.31 µM) |
| COc1nc2ccc(S(C)(=O)=O)cc2cc1C(c1ccc(Cl)cc1)C1(O)CCNC(c2ccc(F)cc2C)C1 (centres unmarked) [Compound 201] | >19.28 |
| CSc1ccc2[nH]c(=O)c(C(c3ccc(Cl)cc3)C3(O)CCNC(Cc4ccc(F)c(F)c4)C3)cc2c1 (centres unmarked) [Compound 204] | 3.63 (≈ 6.71 µM) |
| COc1nc2ccc(S(C)(=O)=O)cc2cc1C(c1ccc(Cl)cc1)C1(O)CCNC(Cc2ccc(F)c(F)c2)C1 (centres unmarked) [Compound 209] | 14.75 (≈ 25.1 µM) |
| COc1nc2ccc(S(C)(=O)=O)cc2cc1C(c1ccc(Cl)cc1)C1(O)CCNC(Cc2ccc(F)c(F)c2)C1 (centres unmarked) [Compound 210] | 1.86 (≈ 3.17 µM) |

Tested on: Mycobacterium smegmatis (ATCC607)
Experiment: In-vitro anti-bacterial activity against strain M. Smegmatis ATCC607
Format: cell-based
Conditions: 90% inhibitory concentration for bacterial growth, 48 hours, Alamar Blue fluorescence
Description: D.1. In-Vitro Method for Testing Compounds for Anti-Bacterial Activity Against Strain M. Smegmatis ATCC607
Flat-bottom, sterile 96-well plastic microtiter plates were filled with 180 μl of sterile deionized water, supplemented with 0.25% BSA. Subsequently, stock solutions (7.8× final test concentration) of compounds were added in 45 μl volumes to a series of duplicate wells in column 2 so as to allow evaluation of their effects on bacterial growth. Serial five-fold dilutions (45 μl in 180 μl) were made directly in the microtiter plates from column 2 to 11 using a customised robot system (Zymark Corp., Hopkinton, Mass.). Pipette tips were changed after every 3 dilutions to minimize pipetting errors with high hydrophobic compounds. Untreated control samples with (column 1) and without (column 12) inoculum were included in each microtiter plate. Approximately 250 CFU per well of bacteria inoculum, in a volume of 100 μl in 2.8× Mueller-Hinton broth medium, was added to the rows A to H, except column 12. The same volume of broth medium without inoculum was added to column 12 in row A to H. The cultures were incubated at 37° C. for 48 hours in a humidified 5% CO2 atmosphere (incubator with open air valve and continuous ventilation). At the end of incubation, two days after inoculation, the bacterial growth was quantitated fluorometrically. Therefore Alamar Blue (10×) was added to all wells in a volume of 20 μl and plates were incubated for another 2 hours at […]
The fluorescence was read in a computer-controlled fluorometer (Cytofluor, Biosearch) at an excitation wavelength of 530 nm and an emission wavelength of 590 nm (gain 30). The percentage growth inhibition achieved by the compounds was calculated according to standard methods and expressed as IC90 (μg/ml) which defines the 90% inhibitory concentration for bacterial growth.

| SMILES | IC90 MSM 607 [µg/mL] |
| --- | --- |
| COc1nc2ccc(SC)cc2cc1C(c1cccc(Cl)c1)C1(O)CCNC(c2ccc(F)cc2C)C1 (centres unmarked) [Compound 163] | 1.20 (≈ 2.23 µM) |
| COc1nc2ccc(SC)cc2cc1C(c1cccc(Cl)c1)C1(O)CCNC(c2ccc(F)cc2C)C1 (centres unmarked) [Compound 164] | 2.38 (≈ 4.43 µM) |
| COc1nc2ccc(SC)cc2cc1C(c1cccc(Cl)c1)C1(O)CCNC(c2ccc(F)cc2C)C1 (centres unmarked) [Compound 165] | 3.61 (≈ 6.72 µM) |
| COc1nc2ccc(SC)cc2cc1C(c1cccc(Cl)c1)C1(O)CCNC(c2ccc(F)cc2C)C1 (centres unmarked) [Compound 166] | 1.95 (≈ 3.63 µM) |
| COc1nc2ccc(SC)cc2cc1C(c1ccccc1)C1(O)CCNC(c2ccc(F)cc2C)C1 (centres unmarked) [Compound 167] | 1.26 (≈ 2.51 µM) |
| COc1nc2ccc(SC)cc2cc1C(c1ccccc1)C1(O)CCNC(c2ccc(F)cc2C)C1 (centres unmarked) [Compound 169] | 3.94 (≈ 7.84 µM) |
| COc1nc2ccc(SC)cc2cc1C(c1ccccc1)C1(O)CCNC(c2ccc(F)cc2C)C1 (centres unmarked) [Compound 170] | 4.69 (≈ 9.33 µM) |
| CSc1ccc2[nH]c(=O)c(C(c3cccc(Cl)c3)C3(O)CCNC(c4ccc(F)cc4C)C3)cc2c1 (centres unmarked) [Compound 177] | 2.78 (≈ 5.31 µM) |
| CSc1ccc2[nH]c(=O)c(C(c3ccccc3)C3(O)CCNC(c4ccc(F)cc4C)C3)cc2c1 (centres unmarked) [Compound 179] | 6.15 (≈ 12.6 µM) |
| CSc1ccc2nc(O)c(C(c3ccccc3)C3(O)CCNC(c4ccc(F)cc4C)C3)cc2c1 (centres unmarked) [Compound 183] | 3.31 (≈ 6.77 µM) |
| COc1nc2ccc(SC)cc2cc1C(c1ccc(Cl)cc1)C1(O)CCNC(Cc2ccc(F)c(F)c2)C1 (centres unmarked) [Compound 190] | 1.76 (≈ 3.17 µM) |
| Cc1cc(F)ccc1C1CC(O)(C(c2ccccc2)c2cc3cc(Br)ccc3[nH]c2=O)CCN1 (centres unmarked) [Compound 192] | 13.96 (≈ 26.8 µM) |
| COc1nc2ccc(SC)cc2cc1C(c1ccccc1)C1(O)CCNC(c2ccc(F)cc2C)C1 (centres unmarked) [Compound 196] | 2.52 (≈ 5.01 µM) |
| COc1nc2ccc(S(C)(=O)=O)cc2cc1C(c1ccc(Cl)cc1)C1(O)CCNC(c2ccc(F)cc2C)C1 (centres unmarked) [Compound 201] | >19.28 |
| CSc1ccc2[nH]c(=O)c(C(c3ccc(Cl)cc3)C3(O)CCNC(Cc4ccc(F)c(F)c4)C3)cc2c1 (centres unmarked) [Compound 204] | 7.23 (≈ 13.4 µM) |
| COc1nc2ccc(S(C)(=O)=O)cc2cc1C(c1ccc(Cl)cc1)C1(O)CCNC(Cc2ccc(F)c(F)c2)C1 (centres unmarked) [Compound 209] | 14.75 (≈ 25.1 µM) |
| COc1nc2ccc(S(C)(=O)=O)cc2cc1C(c1ccc(Cl)cc1)C1(O)CCNC(Cc2ccc(F)c(F)c2)C1 (centres unmarked) [Compound 210] | 2.94 (≈ 5.01 µM) |

Same assay, conditions: Mycolicibacterium smegmatis, ATCC607, 48 h, 90% inhibitory concentration for bacterial growth, Alamar Blue fluorescence, read-out: IC90 MSM 607

| SMILES | IC90 [µg/mL] |
| --- | --- |
| COc1nc2ccc(Br)cc2cc1C(c1cccc(Cl)c1)C1(O)CCNC(c2ccc(F)cc2C)C1 (centres unmarked) [Compound 173] | 3.2 (≈ 5.62 µM) |
| COc1nc2ccc(SC)cc2cc1C(c1ccc(Cl)cc1)C1(O)CCNC(Cc2ccc(F)c(F)c2)C1 (centres unmarked) [Compound 188] | 2.77 (≈ 4.99 µM) |
